According to US20210045385A1, “PYRIDAZINONE-SUBSTITUTED KETOXIMES AS HERBICIDES” (FMC Corporation, priority 2018, published 2021):

What was measured:
Format in all cases: in vivo
[1] = system: Italian ryegrass (Lolium mutiflorum); assay: Test C preemergence, visual plant response rating; conditions: Test C, 0 is no effect, 100 is complete control
Summary of the method: (§1)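 Visual injury on a 0 (no effect) to 100 (complete control) scale versus untreated controls, scored approximately 10 d after treatment under greenhouse conditions. Treatments used surfactant-containing non-phytotoxic solvent formulations, sprayed onto loam–sand soil preemergence or onto one- to two-leaf plants 2–10 cm tall postemergence.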

[2] = system: barnyardgrass (Echinochloa crus-galli); assay: Test C preemergence, visual plant response rating; conditions: Test C, 0 is no effect, 100 is complete control
Summary of the method: as §1

[3] = system: foxtail, giant (giant foxtail, Setaria faberi); assay: Test C preemergence, visual plant response rating; conditions: Test C, 0 is no effect, 100 is complete control
Summary of the method: as §1

kochia (Bassia scoparia) [4] = assay: Test C preemergence, visual plant response rating; conditions: Test C, 0 is no effect, 100 is complete control
Summary of the method: as §1

[5] = system: pigweed (Amaranthus retroflexus); assay: Test C preemergence, visual plant response rating; conditions: Test C, 0 is no effect, 100 is complete control
Summary of the method: as §1

[6] = system: ragweed (common ragweed, Ambrosia artemisiifolia); assay: Test C preemergence, visual plant response rating; conditions: Test C, 0 is no effect, 100 is complete control
Summary of the method: as §1

[7] = system: Italian ryegrass (Lolium mutiflorum); assay: Test C postemergence, visual plant response rating
Summary of the method: as §1

[8] = system: barnyardgrass (Echinochloa crus-galli); assay: Test C postemergence, visual plant response rating
Summary of the method: as §1

[9] = system: blackgrass (Alopecurus myosuroides); assay: Test C postemergence, visual plant response rating
Summary of the method: as §1

corn (Zea mays) = assay: Test C postemergence, visual plant response rating
Summary of the method: as §1

[10] = system: foxtail, giant (giant foxtail, Setaria faberi); assay: Test C postemergence, visual plant response rating
Summary of the method: as §1

[11] = system: galium (catchweed bedstraw, Galium aparine); assay: Test C postemergence, visual plant response rating
Summary of the method: as §1

kochia (Bassia scoparia) [12] = assay: Test C postemergence, visual plant response rating
Summary of the method: as §1

[13] = system: pigweed (Amaranthus retroflexus); assay: Test C postemergence, visual plant response rating
Summary of the method: as §1

[14] = system: ragweed (common ragweed, Ambrosia artemisiifolia); assay: Test C postemergence, visual plant response rating
Summary of the method: as §1

[15] = system: wheat (Triticum aestivum); assay: Test C postemergence, visual plant response rating
Summary of the method: as §1

[16] = system: barnyardgrass (Echinochloa crus-galli); assay: Test D flooded paddy test, visual plant response rating; conditions: 250 g ai/ha, scale 0 to 100 (0 no effect, 100 complete control), 13 to 15 d
Summary of the method: (§2)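 Rating is visual, on a 0 (no effect) to 100 (complete control) scale versus controls, taken 13 to 15 d after treatment in a greenhouse. Treatment went into paddy water kept 3 cm above the soil surface, with plants at the 2-leaf stage.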

[17] = system: duck salad (Heteranthera limosa); assay: as above; conditions: 250 g ai/ha, scale 0 to 100 (0 no effect, 100 complete control), 13 to 15 d
Summary of the method: as §2

rice (Oryza sativa) = assay: as above; conditions: 250 g ai/ha, scale 0 to 100 (0 no effect, 100 complete control), 13 to 15 d
Summary of the method: as §2

[18] = system: sedge umbrella (small-flower umbrella sedge, Cyperus difformis); assay: as above; conditions: 250 g ai/ha, scale 0 to 100 (0 no effect, 100 complete control), 13 to 15 d
Summary of the method: as §2

[19] = Test C, postemergence, 125 g ai/ha

SMILES	Ryegrass, Italian plant response rating (0 to 100 scale) ([1]; 31 g ai/ha)	Ryegrass, Italian plant response rating (0 to 100 scale) ([1]; 125 g ai/ha)	Barnyardgrass plant response rating (0 to 100 scale) ([2]; 31 g ai/ha)	Barnyardgrass plant response rating (0 to 100 scale) ([2]; 125 g ai/ha)	Foxtail, Giant plant response rating (0 to 100 scale) ([3]; 31 g ai/ha)	Foxtail, Giant plant response rating (0 to 100 scale) ([3]; 125 g ai/ha)	Kochia plant response rating (0 to 100 scale) (kochia (Bassia scoparia) [4]; 31 g ai/ha)	Kochia plant response rating (0 to 100 scale) (kochia (Bassia scoparia) [4]; 125 g ai/ha)	Pigweed plant response rating (0 to 100 scale) ([5]; 31 g ai/ha)	Pigweed plant response rating (0 to 100 scale) ([5]; 125 g ai/ha)	Ragweed plant response rating (0 to 100 scale) ([6]; 31 g ai/ha)	Ragweed plant response rating (0 to 100 scale) ([6]; 125 g ai/ha)	Ryegrass, Italian plant response rating (0 to 100 scale) ([7]; Postemergence, 31 g ai/ha)	Ryegrass, Italian plant response rating (0 to 100 scale) [7, 19]	Barnyardgrass plant response rating (0 to 100 scale) ([8]; Postemergence, 31 g ai/ha)	Barnyardgrass plant response rating (0 to 100 scale) [8, 19]	Blackgrass plant response rating (0 to 100 scale) ([9]; Postemergence, 31 g ai/ha)	Blackgrass plant response rating (0 to 100 scale) [9, 19]	Corn plant response rating (0 to 100 scale) (corn (Zea mays); Postemergence, 31 g ai/ha)	Corn plant response rating (0 to 100 scale) (corn (Zea mays); [19])	other results
Cc1nn(C)c(=O)c(/C(=N\OC(C)C)c2cccc3cc(Cl)ccc23)c1O [Compound 241]	0	0	10	60	80	90	0	0	90	100	40	10	0	0	30	60	20	40	10	0	Foxtail, Giant plant response rating (0 to 100 scale) ([10]; Postemergence, 31 g ai/ha): 70; Foxtail, Giant plant response rating (0 to 100 scale) [10, 19]: 80; Galium plant response rating (0 to 100 scale) ([11]; Postemergence, 31 g ai/ha): 90; Galium plant response rating (0 to 100 scale) [11, 19]: 100; Kochia plant response rating (0 to 100 scale) (kochia (Bassia scoparia) [12]; Postemergence, 31 g ai/ha): 0; Kochia plant response rating (0 to 100 scale) (kochia (Bassia scoparia) [12]; [19]): 20; Pigweed plant response rating (0 to 100 scale) ([13]; Postemergence, 31 g ai/ha): 80; Pigweed plant response rating (0 to 100 scale) [13, 19]: 90; Ragweed plant response rating (0 to 100 scale) ([14]; Postemergence, 31 g ai/ha): 80; Ragweed plant response rating (0 to 100 scale) [14, 19]: 100; Wheat plant response rating (0 to 100 scale) ([15]; Postemergence, 31 g ai/ha): 0; Wheat plant response rating (0 to 100 scale) [15, 19]: 0; Plant response rating, Barnyardgrass (Flood) [16]: 90; Plant response rating, Ducksalad (Flood) [17]: 85; Plant response rating, Rice (Flood) (rice (Oryza sativa)): 85; Plant response rating, Sedge, Umbrella (Flood) [18]: 95
C#CCON=C(c1cccc(OC)c1)c1c(O)c(C)nn(C)c1=O [Compound 203]	0	0	0	0	0	10	0	0	0	0	0	0	30	30	0	20	0	0	0	0	Foxtail, Giant plant response rating (0 to 100 scale) ([10]; Postemergence, 31 g ai/ha): 0; Foxtail, Giant plant response rating (0 to 100 scale) [10, 19]: 30; Galium plant response rating (0 to 100 scale) ([11]; Postemergence, 31 g ai/ha): 30; Galium plant response rating (0 to 100 scale) [11, 19]: 30; Kochia plant response rating (0 to 100 scale) (kochia (Bassia scoparia) [12]; Postemergence, 31 g ai/ha): 20; Kochia plant response rating (0 to 100 scale) (kochia (Bassia scoparia) [12]; [19]): 50; Pigweed plant response rating (0 to 100 scale) ([13]; Postemergence, 31 g ai/ha): 10; Pigweed plant response rating (0 to 100 scale) [13, 19]: 20; Ragweed plant response rating (0 to 100 scale) ([14]; Postemergence, 31 g ai/ha): 0; Ragweed plant response rating (0 to 100 scale) [14, 19]: 10; Wheat plant response rating (0 to 100 scale) ([15]; Postemergence, 31 g ai/ha): 0; Wheat plant response rating (0 to 100 scale) [15, 19]: 0; Plant response rating, Barnyardgrass (Flood) [16]: 0; Plant response rating, Ducksalad (Flood) [17]: 0; Plant response rating, Rice (Flood) (rice (Oryza sativa)): 0; Plant response rating, Sedge, Umbrella (Flood) [18]: 0
C#CCO/N=C(/c1ccc(F)c(Cl)c1)c1c(O)c(C)nn(C)c1=O [Compound 229]	20	90	0	30	10	30	0	0	10	40	0	0	40	70	0	30	50	0	0	40	Foxtail, Giant plant response rating (0 to 100 scale) ([10]; Postemergence, 31 g ai/ha): 10; Foxtail, Giant plant response rating (0 to 100 scale) [10, 19]: 40; Galium plant response rating (0 to 100 scale) ([11]; Postemergence, 31 g ai/ha): 60; Galium plant response rating (0 to 100 scale) [11, 19]: 80; Kochia plant response rating (0 to 100 scale) (kochia (Bassia scoparia) [12]; Postemergence, 31 g ai/ha): 0; Kochia plant response rating (0 to 100 scale) (kochia (Bassia scoparia) [12]; [19]): 0; Pigweed plant response rating (0 to 100 scale) ([13]; Postemergence, 31 g ai/ha): 20; Pigweed plant response rating (0 to 100 scale) [13, 19]: 50; Ragweed plant response rating (0 to 100 scale) ([14]; Postemergence, 31 g ai/ha): 10; Ragweed plant response rating (0 to 100 scale) [14, 19]: 20; Wheat plant response rating (0 to 100 scale) ([15]; Postemergence, 31 g ai/ha): 30; Wheat plant response rating (0 to 100 scale) [15, 19]: 60; Plant response rating, Barnyardgrass (Flood) [16]: 0; Plant response rating, Ducksalad (Flood) [17]: 0; Plant response rating, Rice (Flood) (rice (Oryza sativa)): 0; Plant response rating, Sedge, Umbrella (Flood) [18]: 0
